Experimental data taken from article PMC10529594, “Strasseriolides display in vitro and in vivo activity against trypanosomal parasites and cause morphological and size defects in Trypanosoma cruzi” (PLOS Neglected Tropical Diseases, 2023).
Structures can show the parent of a compound that is named as a salt. Where two headings read alike, the source gives them in different places.

Columns and labels:
[1] = system: L. donovani MHOM/ET/67/HU3 transgenic intracellular amastigotes; assay: L. donovani intracellular amastigote assay (luciferase, THP-1 macrophages); type: cell-based; settings: Leishmania donovani, THP-1, 72 h, read-out: EC50 L. donovani
Experimental: Leishmania donovani MHOM/ET/67/HU3 cells with the luciferase gene integrated into the parasite genome was obtained as described. Parasites were grown at 28°C in RPMI 1640-modified medium supplemented with 20% heat-inactivated fetal bovine serum (iFBS, Invitrogen) with […] of hygromycin B.
THP-1 cells were differentiated into macrophages with 20 ng/mL of PMA in a 96-well plate at 3 × 10^4 cells per well for 48 hours followed by 24 hours of culture in fresh medium. Cells were then infected with transgenic stationary L. donovani MHOM/ET/67/HU3 promastigotes expressing the luciferase gene at a multiplicity of infection (MOI) of 10. A volume of 100 μL of culture media containing the test compounds was added to each well and the plates were incubated at 37°C for 72 hours. Luminescence was measured using the Promega kit luciferase assay system.

[2] = system: intracellular T. cruzi amastigotes; assay: Rate of kill, intracellular T. cruzi amastigotes (CPRG, 96-well); type: cell-based, Trypanosoma cruzi; settings: Amastigotes; for EC50: Trypanosoma cruzi
Experimental: For rate of kill experiments, in vitro activity against intracellular T. cruzi amastigotes was analyzed at early time points: 24, 48 and 72 hours. The standard colorimetric transgenic assay was established in a 96-well format, with serial dilutions of compounds and 0.05% as the final maximal DMSO percentage per well. In these experiments L6 host cells were included as negative controls and CPRG conversion was monitored at 585 nm using a Versamax microplate reader (Molecular devices).

T. cruzi trypomastigotes = assay: T. cruzi trypomastigote viability / rate of action assay (CellTiter-Glo bioluminescence); type: cell-based, Trypanosoma cruzi; settings: for EC50: Trypanosoma cruzi, read-out: EC50; for EC50 / EC90/EC50 / Hill slope: Trypomastigotes
Experimental: Tulahuen T. cruzi trypomastigotes were recovered 6 days post infection from the supernatant of harvested infected L6 cells cultures after 3 hours at 37°C. 90 μL of parasite culture at a density of 5 × 10^6 cells in RPMI 1640 media were dispensed into 96 Nunc flat bottom assay plates containing 10 μL of each compound.
Parasite viability was assessed upon 24, 48 and 72 hour incubation at 37°C in 5% CO2 by adding 50 μL of CellTiter-Glo viability reagent to white 96-well microplates. After signal stabilization, bioluminescence was read. Compound concentrations ranged from 0.1 μM to 50 μM and final maximal DMSO percentage in the well was 0.05%. Results were normalized to […] control columns in each plate.

[3] = system: T. b. brucei 427 bloodstream forms; assay: Resazurin-based T. b. brucei assay; type: cell-based; settings: Trypanosoma brucei; T. b. brucei 427 bloodstream forms, 72 h; read-out: EC50 T. brucei
Experimental: Parasites strains adapted to culture in vitro were used. T. b. brucei Lister 427 bloodstream form parasites (information about the identity and genealogy of this strain is available at The Rockefeller University website) were grown in HMI-9 medium supplemented with 10% heat-inactivated fetal bovine serum (iFBS).
Cells in logarithmic phase of growth were added using a Multidrop dispenser (45 μL, 500 bloodstream T. b. brucei parasites per well) to 384-well Corning assay plates already containing 5 μL of each compound and controls, and incubated for 72 hours at 37°C. 10 μL of resazurin were added per well, and the plates were further incubated for 6 hours at 37°C. The final fluorescence was determined at 550–590 nm. Pentamidine at 40 nM and 0.0067% DMSO were used as […] growth controls, respectively.

C[C@@H]1[C@H](O)[C@@H](C)/C=C/C=C/C=C/C=C/C=C/C=C/C=C/[C@H](O[C@@H]2O[C@H](C)[C@@H](O)[C@H](N)[C@@H]2O)C[C@@H]2O[C@](O)(C[C@@H](O)C[C@@H](O)[C@H](O)CC[C@@H](O)C[C@@H](O)CC(=O)O[C@H]1C)C[C@H](O)[C@H]2C(=O)O [Amphotericin B, amphotericin B, reference compound]
EC50 [1]: 53 nM

CC1CS(=O)(=O)CCN1/N=C/c1ccc([N+](=O)[O-])o1 (stereo not shown) [Nifurtimox, nifurtimox]
EC90/EC50 ([2]; 24 h): 4.07 | Hill slope ([2]; 24 h): 1.60 | EC90/EC50 ([2]; 48 h): 4.16 | Hill slope ([2]; 48 h): 1.55 | EC90/EC50 ([2]; 72 h): 3.03 | Hill slope ([2]; 72 h): 1.98 | EC50 ([2]; 24 h): 300 nM | EC50 ([2]; 48 h): 150 nM | EC50 ([2]; 72 h): 130 nM | RLU Average, trypomastigote viability (T. cruzi trypomastigotes; 24 h, 0.0195312 µM, untreated 165759): 169266 RLU | RLU Average, trypomastigote viability (T. cruzi trypomastigotes; 24 h, 0.0390625 µM, untreated 165759): 166443 RLU | RLU Average, trypomastigote viability (T. cruzi trypomastigotes; 24 h, 0.078125 µM, untreated 165759): 165831 RLU | RLU Average, trypomastigote viability (T. cruzi trypomastigotes; 24 h, 0.15625 µM, untreated 165759): 160072 RLU | RLU Average, trypomastigote viability (T. cruzi trypomastigotes; 24 h, 0.3125 µM, untreated 165759): 149962 RLU | RLU Average, trypomastigote viability (T. cruzi trypomastigotes; 24 h, 0.625 µM, untreated 165759): 139314 RLU | RLU Average, trypomastigote viability (T. cruzi trypomastigotes; 24 h, 1.25 µM, untreated 165759): 111524 RLU | RLU Average, trypomastigote viability (T. cruzi trypomastigotes; 24 h, 2.5 µM, untreated 165759): 65827 RLU | RLU Average, trypomastigote viability (T. cruzi trypomastigotes; 24 h, 5 µM, untreated 165759): 11749 RLU | RLU Average, trypomastigote viability (T. cruzi trypomastigotes; 24 h, 10 µM, untreated 165759): 1446 RLU | RLU Average, trypomastigote viability (T. cruzi trypomastigotes; 48 h, 0.0195312 µM, untreated 134778): 139199 RLU | RLU Average, trypomastigote viability (T. cruzi trypomastigotes; 48 h, 0.0390625 µM, untreated 134778): 135603 RLU | RLU Average, trypomastigote viability (T. cruzi trypomastigotes; 48 h, 0.078125 µM, untreated 134778): 135814 RLU | RLU Average, trypomastigote viability (T. cruzi trypomastigotes; 48 h, 0.15625 µM, untreated 134778): 121189 RLU | RLU Average, trypomastigote viability (T. cruzi trypomastigotes; 48 h, 0.3125 µM, untreated 134778): 101689 RLU | RLU Average, trypomastigote viability (T. cruzi trypomastigotes; 48 h, 0.625 µM, untreated 134778): 74973 RLU | RLU Average, trypomastigote viability (T. cruzi trypomastigotes; 48 h, 1.25 µM, untreated 134778): 27237 RLU | RLU Average, trypomastigote viability (T. cruzi trypomastigotes; 48 h, 2.5 µM, untreated 134778): 4248 RLU | RLU Average, trypomastigote viability (T. cruzi trypomastigotes; 48 h, 5 µM, untreated 134778): 1304 RLU | RLU Average, trypomastigote viability (T. cruzi trypomastigotes; 48 h, 10 µM, untreated 134778): 430 RLU | RLU Average, trypomastigote viability (T. cruzi trypomastigotes; 72 h, 0.0195312 µM, untreated 74303): 78773 RLU | RLU Average, trypomastigote viability (T. cruzi trypomastigotes; 72 h, 0.0390625 µM, untreated 74303): 76780 RLU | RLU Average, trypomastigote viability (T. cruzi trypomastigotes; 72 h, 0.078125 µM, untreated 74303): 75817 RLU | RLU Average, trypomastigote viability (T. cruzi trypomastigotes; 72 h, 0.15625 µM, untreated 74303): 65552 RLU | RLU Average, trypomastigote viability (T. cruzi trypomastigotes; 72 h, 0.3125 µM, untreated 74303): 53878 RLU | RLU Average, trypomastigote viability (T. cruzi trypomastigotes; 72 h, 0.625 µM, untreated 74303): 44434 RLU | RLU Average, trypomastigote viability (T. cruzi trypomastigotes; 72 h, 1.25 µM, untreated 74303): 6874 RLU | RLU Average, trypomastigote viability (T. cruzi trypomastigotes; 72 h, 2.5 µM, untreated 74303): 861 RLU | RLU Average, trypomastigote viability (T. cruzi trypomastigotes; 72 h, 5 µM, untreated 74303): 764 RLU | RLU Average, trypomastigote viability (T. cruzi trypomastigotes; 72 h, 10 µM, untreated 74303): 553 RLU | EC50 (T. cruzi trypomastigotes; 24 h): 2080 nM | EC50 (T. cruzi trypomastigotes; 48 h): 640 nM | EC50 (T. cruzi trypomastigotes; 72 h): 600 nM | EC90/EC50 (T. cruzi trypomastigotes; 24 h): 4.04 | Hill slope (T. cruzi trypomastigotes; 24 h): 1.58 | EC90/EC50 (T. cruzi trypomastigotes; 48 h): 3.61 | Hill slope (T. cruzi trypomastigotes; 48 h): 1.71 | EC90/EC50 (T. cruzi trypomastigotes; 48 h, listed as nifurtimox): 3.6 | Hill slope (T. cruzi trypomastigotes; 48 h, listed as nifurtimox): below 2.1 | EC90/EC50 (T. cruzi trypomastigotes; 72 h): 3.33 | Hill slope (T. cruzi trypomastigotes; 72 h): 1.83 | EC90/EC50 (T. cruzi trypomastigotes; 72 h, listed as nifurtimox): 3.3 | Hill slope (T. cruzi trypomastigotes; 72 h, listed as nifurtimox): below 2.1

N=C(N)c1ccc(OCCCCCOc2ccc(C(=N)N)cc2)cc1 [Pentamidine, pentamidine isethionate salt, reference compound]
EC50 [3]: 2 nM

CC[C@@H]([C@H](C)O)n1ncn(-c2ccc(N3CCN(c4ccc(OC[C@@H]5CO[C@@](Cn6cncn6)(c6ccc(F)cc6F)C5)cc4)CC3)cc2)c1=O [Posaconazole, posaconazole]
EC90/EC50 ([2]; 24 h): 5.16 | Hill slope ([2]; 24 h): 1.33 | EC90/EC50 ([2]; 48 h): 6.41 | Hill slope ([2]; 48 h): 1.20 | EC90/EC50 ([2]; 72 h): 1.83 | Hill slope ([2]; 72 h): 3.65 | EC50 ([2]; 24 h): 5410 nM | EC50 ([2]; 48 h): 0.8 nM | EC50 ([2]; 72 h): 0.7 nM | effect against extracellular forms (trypomastigotes) (T. cruzi trypomastigotes; 2 μM, 24 and 48 hours): no effect
